Measurements taken from PMC9569971, “New Oxazolo[5,4-d]pyrimidines as Potential Anticancer Agents: Their Design, Synthesis, and In Vitro Biological Activity Research” (International Journal of Molecular Sciences, 2022).

Columns and labels:
p53 = p53 Human ELISA Kit, HT29 lysate; format: cell-based; conditions: lysate of HT29 cells treated with 3g; SD ±0.97
Protocol: The assay was performed on a lysate of the HT29 colon adenocarcinoma cell line treated with compound 3g. The microwells of the 96-well plate were washed 2 times with approximately 400 µL of washing buffer per well. The washing buffer was left in the wells for approximately 15 s prior to aspiration. Care was taken not to scratch the surface of the microwells. After the final rinsing step, the wells were emptied. An absorbent swab was used to remove excess wash buffer. Standard dilutions were applied to the microwell plate. Two rows of human p53 standard were prepared at dilutions ranging from 50.00 to 0.78 U/mL. […] The color change was monitored with an ELISA measured at 620 nm. The colored product was formed in proportion to the quantity of human p53 protein present in the sample and the standard. […] The results were read immediately after the addition of the enzyme stop solution. Absorbance was measured with a spectrophotometer at 450 nm. A standard curve was prepared from 7 dilutions of the human p53 standard from which the values for compound 3g were read.
Biological assays were performed in three independent replicates, and each replicate used four samples. […] For the assessment of cytotoxicity, mathematical models were developed using the GraphPad PRISM software, based on which CC50 was determined. […]

Caspase-3 = test: Human Caspase-3 (Active) ELISA Kit, HT29 lysate; format: cell-based; conditions: lysate of HT29 cells treated with 3g; SD ±3.03
Protocol: The test was performed on an HT29 colon adenocarcinoma cell line lysate treated with compound 3g. Cells from the HT29 line were harvested by centrifugation (non-adherent cells) and scraping from the culture flasks (adherent cells), and then the cells were washed twice with cold PBS. The supernatant was removed and discarded, and cell pellets were collected. The cell pellets were then lysed in a cell extraction container for 30 min on ice and […]. The lysate was transferred to microcentrifuge tubes and centrifuged at 13,000 rpm for 10 min at 4 °C. The supernatant was transferred to clean microcentrifuge tubes. Caspase-3 standard (active) was prepared from recombinant protein. The caspase-3 standard was reconstituted with the standard solvent solution at a concentration of 2.5 ng/mL. The contents were swirled and then left for 10 min to ensure complete dissolution. […]
In this method, a monoclonal capture antibody specific to caspase-3 (cleaved) was coated onto the wells of a 96-well plate. […] The absorbance at 450 nm was read for […] after the stop solution was added. […] Concentrations for unknown samples and controls were read from the standard curve. The intensity of the colored product was directly proportional to the concentration of the target protein present in the original specimen, and the optical density was read on a microplate reader. […]

## Cc1noc(N)c1-c1nc2c(NCCCN(C)C)ncnc2o1 [Compound 3g, 2-(5-Amino-3-methylisoxazol-4-yl)-7-N-[3-(N,N-dimethylamino)propyl]aminooxazolo[5,4-d]pyrimidine]
p53
  p53 concentration: 4.22 [U/mL]
Caspase-3
  Caspase-3 concentration: 12.27 [ng/mL]
